Values quoted from earlier work, collected in patent US20150239832A1 (Neuro Pro Therapeutics, Inc., priority 2012, published 2015).

Columns and labels:
[1] = test system: rat models of anxiety; details: Krystal et al., PLoS ONE 2012
[2] = test system: rats; details: whole animal studies in rats
[3] = test system: primate cortex
[4] = test system: NKCC1 over KCC2
[5] = test system: patients with medically intractable seizures; details: intravenously administered, intraoperative

Row | Structure (SMILES) | effect on conditioned anxiety [1] | effect on kainic acid status [2] | potency in blocking epileptiform activity (focal bicuculline or 4-AP) and stimulation-evoked afterdischarges [3] | affinity for NKCC1 relative to KCC2 [4] | effect on interictal spiking and stimulation-evoked afterdischarges of the neocortex [5]
1 | CCCCNc1cc(C(=O)O)cc(S(N)(=O)=O)c1Oc1ccccc1 [bumetanide] | significantly reduce conditioned anxiety | more potent than furosemide | more potent than furosemide | significantly greater affinity for NKCC1 over KCC2 | –
2 | NS(=O)(=O)c1cc(C(=O)O)c(NCc2ccco2)cc1Cl [furosemide] | significantly reduce conditioned anxiety | – | – | – | blocked spontaneously occurring interictal spiking and stimulation-evoked afterdischarges
